Assays:
Rattus norvegicus [1] = species: Rattus norvegicus; experiment: Potency measured relative to that of fenclofenac; assay type: functional
Rattus norvegicus [2] = experiment: Antiinflammatory activity in rats, at a dose of 10 mg/kg po(significant toxicity at 100 mg/kg), activity expressed as minimum ulcerogenic dose(MUD) for a period of 24 hr; Value ranges from (200-400); assay type: functional
Rattus norvegicus [3] = experiment: Antiinflammatory activity in rats, at a dose of 10 mg/kg po(significant toxicity at 100 mg/kg), by adjuvant-induced arthritis test; assay type: functional
Rattus norvegicus [4] = species: Rattus norvegicus; experiment: Potency measured relative to that of fenclofenac.; assay type: functional
Rattus norvegicus [5] = experiment: Antiinflammatory activity in rats, at a dose of 10 mg/kg po(showed some toxicity at this dose level), using adjuvant-induced arthritis test; assay type: functional
Rattus norvegicus [6] = experiment: Antiinflammatory activity in rats, at a dose of 2 mg/kg po, using adjuvant-induced as arthritis test; assay type: functional
Rattus norvegicus [7] = experiment: Antiinflammatory activity in rats, at a dose of 10 mg/kg po, activity expressed as minimum ulcerogenic dose(MUD) for a period of 24 hr; Value ranges from (100-200); assay type: functional
[8] = Median lethal dose using 10 rats per dose.; assay type: ADME, organism-based; settings: rat, in vivo
Rattus norvegicus [9] = experiment: Antiinflammatory activity in rats, at a dose of 0.08 mg/kg po, using adjuvant-induced arthritis test; assay type: functional
Rattus norvegicus [10] = experiment: Antiinflammatory activity in rats, at a dose of 100 mg/kg po, activity expressed as minimum ulcerogenic dose(MUD) for a period of 24 hr; Value ranges from (400-800); assay type: functional
Rattus norvegicus [11] = experiment: Antiinflammatory activity in rats, at a dose of 100 mg/kg po, using adjuvant-induced arthritis test; assay type: functional
Rattus norvegicus [12] = species: Rattus norvegicus; experiment: Antiinflammatory activity in rats, activity expressed as minimum ulcerogenic dose(MUD) for a period of 24 hr.; assay type: functional

With O=C(O)Cc1ccccc1Oc1c(Cl)ccc(Cl)c1Cl the Relative potency (Rattus norvegicus [1]) was 14, the MUD (Rattus norvegicus [2]) was 400 mg/kg and the Inhibition (Rattus norvegicus [3]) was 51%.
With O=C(O)Cc1ccccc1Oc1c(Cl)c(Cl)cc(Cl)c1Cl the Relative potency (Rattus norvegicus [4]) was 40, the inhibition in vivo at 10 mg/kg (Rattus norvegicus [5]) was 44% and the inhibition in vivo at 2 mg/kg (Rattus norvegicus [6]) was 38%. The MUD (Rattus norvegicus [7]) was 200 mg/kg and the LD50 [8] was 303 mg/kg.
Compound O=C(O)Cc1ccccc1Nc1c(Cl)c(Cl)cc(Cl)c1Cl has an inhibition in vivo at 0.08 mg/kg (Rattus norvegicus [9]) of 18%.
Compound O=C(O)Cc1ccccc1Sc1c(Cl)c(Cl)cc(Cl)c1Cl has a Relative potency (Rattus norvegicus [1]) of 0.21 and an inhibition in vivo at 0.08 mg/kg (Rattus norvegicus [9]) of less than 22%.
In the case of O=C(O)Cc1ccccc1Oc1c(Cl)cc(Cl)c(Cl)c1Cl, the Relative potency (Rattus norvegicus [1]) is reported as 8 and the Inhibition (Rattus norvegicus [3]) is reported as 43%.
With O=C(O)Cc1ccccc1Oc1cc(Cl)cc(Cl)c1Cl the Relative potency (Rattus norvegicus [1]) was 1.5 and the Inhibition (Rattus norvegicus [3]) was 21%.
Work on O=C(O)Cc1ccccc1[S+]([O-])c1c(Cl)c(Cl)cc(Cl)c1Cl (stereo unspecified) yielded an inhibition in vivo at 0.08 mg/kg (Rattus norvegicus [9]) of 19%.
In the case of O=C(O)Cc1ccccc1Oc1ccc(Cl)cc1Cl [FENCLOFENAC], the Relative potency (Rattus norvegicus [4]) is reported as 1, the MUD (Rattus norvegicus [10]) is reported as 800 mg/kg and the inhibition in vivo at 100 mg/kg (Rattus norvegicus [11]) is reported as 35%.
COc1ccc2c(c1)c(CC(=O)O)c(C)n2C(=O)c1ccc(Cl)cc1 [INDOMETHACIN] gave an MUD (Rattus norvegicus [12]) of 1.25 mg/kg and an LD50 [8] of 19.8 mg/kg.

— ChEMBL document CHEMBL1122481, “Substituted (2-phenoxyphenyl)acetic acids with antiinflammatory activity. 2” (J Med Chem, 1983)
